# Key:
# Assay in all cases: relative viability (nuclei count vs DMSO), 5 days (fraction); higher = more cells survive
# [1] = compound: CC1=CC=C(C=C1)C(=O)CN2C3=C(CCCC3)SC2=N [Pifithrin_alpha] + CC(=O)c1c(C)c2cnc(Nc3ccc(N4CCNCC4)cn3)nc2n(C2CCCC2)c1=O [Palbociclib] (partner 0.5 µM)
# In short: (§1)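 Cells from lung cancer lines were seeded into 1536-well plates and, one day later, dosed by pin tool. Treatments were either a single drug or a fixed dose of an anchor drug with five library-drug doses (not always all listed) in √10 steps. After 5 days, nuclei were stained in a one-step fixation (final 0.05% Triton X-100, 1% formaldehyde, 1 ug/ml Hoechst) and counted on 4× images, and relative viability is the treated-to-vehicle nuclei ratio, as the median of duplicate plates.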
# Axitinib + Olaparib = compound: CNC(=O)c1ccccc1Sc1ccc2c(/C=C/c3ccccn3)n[nH]c2c1 [Axitinib] + O=C(c1cc(Cc2n[nH]c(=O)c3ccccc23)ccc1F)N1CCN(C(=O)C2CC2)CC1 [Olaparib] (partner 8 µM)
# In short: as §1
# Axitinib + Phenformin = compound: CNC(=O)c1ccccc1Sc1ccc2c(/C=C/c3ccccn3)n[nH]c2c1 [Axitinib] + N=C(N)NC(=N)NCCc1ccccc1 [Phenformin] (partner 250 µM)
# In short: as §1
# Bemcentinib + Phenformin = compound: Nc1nc(Nc2ccc3c(c2)CC[C@@H](N2CCCC2)CC3)nn1-c1cc2c(nn1)-c1ccccc1CCC2 [Bemcentinib] + N=C(N)NC(=N)NCCc1ccccc1 [Phenformin] (partner 250 µM)
# In short: as §1
Cell Line,relative viability ([1]; first compound 1 µM),relative viability ([1]; first compound 3.162 µM),relative viability ([1]; first compound 10 µM),relative viability ([1]; first compound 31.62 µM),relative viability ([1]; first compound 100 µM),relative viability (Axitinib + Olaparib; first compound 0.005 µM),relative viability (Axitinib + Olaparib; first compound 0.01581 µM),relative viability (Axitinib + Olaparib; first compound 0.05 µM),relative viability (Axitinib + Olaparib; first compound 0.1581 µM),relative viability (Axitinib + Olaparib; first compound 0.5 µM),relative viability (Axitinib + Phenformin; first compound 0.005 µM),relative viability (Axitinib + Phenformin; first compound 0.01581 µM),relative viability (Axitinib + Phenformin; first compound 0.05 µM),relative viability (Axitinib + Phenformin; first compound 0.1581 µM),relative viability (Axitinib + Phenformin; first compound 0.5 µM),relative viability (Bemcentinib + Phenformin; first compound 0.04 µM),relative viability (Bemcentinib + Phenformin; first compound 0.1265 µM),relative viability (Bemcentinib + Phenformin; first compound 0.4 µM),relative viability (Bemcentinib + Phenformin; first compound 1.265 µM),relative viability (Bemcentinib + Phenformin; first compound 4 µM)
HCC-827,0.49,0.444,0.479,0.43,0.471,0.617,0.566,0.66,0.62,0.812,0.408,0.4,0.419,0.381,0.459,0.413,0.375,0.43,0.431,0.419
EPLC-272H,,0.322,0.334,0.315,0.351,0.845,0.927,0.884,0.475,1.13,0.324,0.326,0.341,0.279,0.304,0.372,0.273,0.27,0.296,0.352
SW 1573,,0.395,0.367,0.241,0.266,0.502,0.595,0.55,0.417,0.507,0.465,0.37,0.398,0.295,0.408,0.415,0.373,0.363,0.368,0.365
LXF-289,0.591,0.625,0.591,0.529,0.6,1.11,1.03,1.05,0.982,1,0.534,0.518,0.526,0.508,0.516,0.523,0.533,0.534,0.532,0.54
SK-LU-1,0.349,0.412,0.405,0.308,0.413,0.454,0.476,0.525,0.448,0.477,0.601,0.597,0.622,0.558,0.752,0.521,0.633,0.485,0.548,0.6
NCI-H23,0.537,0.413,0.445,0.351,0.413,0.284,0.331,0.334,0.285,0.312,0.577,0.842,0.857,0.708,0.847,0.813,0.822,0.803,0.659,0.755
SW 900,0.58,0.513,0.453,0.388,0.526,1.02,,1.07,0.892,0.927,0.577,0.411,0.464,0.46,0.803,0.396,0.588,0.557,0.648,0.458
CAL-12T,0.364,0.308,0.436,,0.238,0.736,0.716,0.736,0.698,0.701,0.567,0.53,0.559,0.63,0.504,0.492,0.632,0.611,0.579,0.601
A-427,0.5,0.529,0.497,0.447,0.454,0.778,0.843,0.803,0.753,1.01,0.356,0.29,0.416,0.323,0.289,0.305,0.308,0.332,0.337,0.258
NCI-H2009,0.194,0.219,0.172,0.128,0.174,0.724,0.686,0.698,0.722,0.819,0.492,0.497,0.506,0.513,0.577,0.497,0.544,0.489,0.466,0.418
NCI-H522,0.988,0.854,0.834,0.893,0.947,0.61,0.639,0.641,0.562,0.748,0.537,0.669,0.698,0.555,0.658,0.598,0.733,0.729,0.722,0.674
UMC-11,0.342,0.289,0.301,0.283,0.296,0.353,0.4,0.737,0.376,0.335,0.343,0.353,0.322,0.326,0.34,0.324,0.355,0.365,0.314,0.312
LOU-NH91,0.471,0.537,0.516,0.491,0.523,0.942,0.745,0.951,0.893,0.934,0.763,0.523,0.875,0.684,0.695,0.637,0.663,0.73,0.748,0.673
HOP-62,0.45,0.483,0.396,0.335,0.52,0.392,0.443,0.321,0.569,0.682,0.73,0.63,0.742,0.665,0.853,0.694,0.707,0.834,0.704,0.645
NCI-H1993,0.585,0.542,0.506,0.54,0.46,1,1.12,1.04,1.01,1.04,0.494,0.514,0.496,0.592,0.529,0.465,0.501,0.528,0.505,0.487

# — the supplement of paper PMC10307832
